From ChEMBL document CHEMBL1201862, “PubChem BioAssay data set” (2004)
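Where inhibition never reached the appropriate level, the endpoint shown equals the highest concentration tested. Otherwise, values were interpolated linearly from a five-concentration, 48-hour dose response in 96-well plates. Here, GI50 denotes the concentration required for 50% inhibition of growth.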 Active and inactive are the calls of the source. Rule as the data show it: active = GI50 up to about 1.1 µM and inactive = higher.

Tests used:
Experiment in all cases: NCI anticancer screen, dose series, 48 h
786-0 = test system: 786-0
RPMI-8226 = test system: RPMI-8226
HL-60 = test system: HL-60
BT-549 = test system: BT-549
IGROV-1 = test system: IGROV-1
HCT-15 = test system: HCT-15
SK-MEL-2 = test system: SK-MEL-2
OVCAR-3 = test system: OVCAR-3
SF-268 = test system: SF-268
NCI-H23 = test system: NCI-H23
SW-620 = test system: SW-620
MOLT-4 = test system: MOLT-4
SR = test system: SR
SN12C = test system: SN12C
MCF7 = test system: MCF7
HCC 2998 = test system: HCC 2998
SF-539 = test system: SF-539
TK-10 = test system: TK-10
HOP-92 = test system: HOP-92
SK-MEL-5 = test system: SK-MEL-5
Hs-578T = test system: Hs-578T
EKVX = test system: EKVX
Malme-3M = test system: Malme-3M
A549 = test system: A549
OVCAR-4 = test system: OVCAR-4
HCT-116 = test system: HCT-116
SK-OV-3 = test system: SK-OV-3
M14 = test system: M14
OVCAR-8 = test system: OVCAR-8
MDA-MB-435 = test system: MDA-MB-435
HOP-62 = test system: HOP-62
NCI/ADR-RES = test system: NCI/ADR-RES
SNB-19 = test system: SNB-19
PC-3 = test system: PC-3
NCI-H460 = test system: NCI-H460
SF-295 = test system: SF-295
CAKI-1 = test system: CAKI-1
SK-MEL-28 = test system: SK-MEL-28
OVCAR-5 = test system: OVCAR-5
CCRF-CEM = test system: CCRF-CEM
MDA-N = test system: MDA-N
UO-31 = test system: UO-31
COLO 205 = test system: COLO 205
UACC-62 = test system: UACC-62
UACC-257 = test system: UACC-257
A498 = test system: A498
K562 = test system: K562
ACHN = test system: ACHN
HT-29 = test system: HT-29
LOX IMVI = test system: LOX IMVI
T47D = test system: T47D
NCI-H226 = test system: NCI-H226
MDA-MB-231 = test system: MDA-MB-231
U-251 = test system: U-251
SNB-75 = test system: SNB-75
DU-145 = test system: DU-145
KM12 = test system: KM12

Measured: GI50

COc1ccc(CCc2nccn2C)cc1OC
inactive: 786-0 > 100 µM | RPMI-8226 > 100 µM | HL-60 > 100 µM | BT-549 > 100 µM | IGROV-1 > 100 µM | SK-MEL-2 > 100 µM | OVCAR-3 > 100 µM | SF-268 > 100 µM | NCI-H23 > 100 µM | SW-620 > 100 µM | MOLT-4 > 100 µM | SR > 100 µM | SN12C > 100 µM | MCF7 > 100 µM | HCC 2998 > 100 µM | SF-539 > 100 µM | TK-10 > 100 µM | HOP-92 > 100 µM | SK-MEL-5 > 100 µM | Hs-578T > 100 µM | EKVX > 100 µM | Malme-3M > 100 µM | A549 > 100 µM | OVCAR-4 > 100 µM | HCT-116 > 100 µM | SK-OV-3 > 100 µM | M14 > 100 µM | OVCAR-8 > 100 µM | MDA-MB-435 > 100 µM | HOP-62 > 100 µM | NCI/ADR-RES > 100 µM | SNB-19 > 100 µM | PC-3 > 100 µM | NCI-H460 > 100 µM | SF-295 > 100 µM | CAKI-1 > 100 µM | SK-MEL-28 > 100 µM | OVCAR-5 > 100 µM | CCRF-CEM > 100 µM | MDA-N > 100 µM | UO-31 > 100 µM | COLO 205 > 100 µM | UACC-62 > 100 µM | UACC-257 > 100 µM | A498 > 100 µM | K562 > 100 µM | ACHN > 100 µM | HT-29 > 100 µM | LOX IMVI > 100 µM
> 100 µM: HCT-15

O=S(=O)(c1ccccc1)C1(CCC2OCCO2)C=CC2(CC1)OCCO2 (stereo unspecified)
> 100 µM: HCT-15
inactive: 786-0 > 100 µM | T47D > 100 µM | RPMI-8226 > 100 µM | NCI-H226 > 100 µM | HL-60 > 100 µM | BT-549 > 100 µM | IGROV-1 > 100 µM | MDA-MB-231 > 100 µM | OVCAR-3 > 100 µM | SF-268 > 100 µM | NCI-H23 > 100 µM | SW-620 > 100 µM | MOLT-4 > 100 µM | SR > 100 µM | SN12C > 100 µM | MCF7 > 100 µM | HCC 2998 > 100 µM | TK-10 > 100 µM | HOP-92 > 100 µM | SK-MEL-5 > 100 µM | EKVX > 100 µM | Malme-3M > 100 µM | A549 > 100 µM | OVCAR-4 > 100 µM | HCT-116 > 100 µM | SK-OV-3 > 100 µM | M14 > 100 µM | OVCAR-8 > 100 µM | MDA-MB-435 > 100 µM | HOP-62 > 100 µM | U-251 > 100 µM | NCI/ADR-RES > 100 µM | SNB-19 > 100 µM | PC-3 > 10 µM | NCI-H460 > 100 µM | SF-295 > 100 µM | SK-MEL-28 > 100 µM | OVCAR-5 > 100 µM | CCRF-CEM > 100 µM | MDA-N > 100 µM | UO-31 > 100 µM | COLO 205 > 100 µM | UACC-62 > 100 µM | SNB-75 > 100 µM | UACC-257 > 100 µM | A498 > 100 µM | K562 > 100 µM | ACHN > 100 µM | DU-145 > 100 µM | HT-29 > 100 µM

CCOC(=O)CCC(NC(=O)C(N)c1ccc([N+](=O)[O-])cc1)C(=O)NC(CCC(=O)OCC)C(=O)OCC (stereo unspecified)
> 100 µM: HCT-15
inactive: 786-0 > 100 µM | T47D 35.6 µM | RPMI-8226 > 100 µM | NCI-H226 > 100 µM | HL-60 > 100 µM | BT-549 > 100 µM | IGROV-1 > 100 µM | MDA-MB-231 > 100 µM | SK-MEL-2 > 100 µM | NCI-H23 > 100 µM | SW-620 > 100 µM | MOLT-4 > 100 µM | SR > 100 µM | SN12C > 100 µM | MCF7 > 100 µM | HCC 2998 > 100 µM | TK-10 > 100 µM | HOP-92 > 100 µM | SK-MEL-5 > 100 µM | Hs-578T > 100 µM | EKVX > 100 µM | Malme-3M > 100 µM | A549 > 100 µM | HCT-116 > 100 µM | M14 > 100 µM | OVCAR-8 > 100 µM | HOP-62 > 100 µM | U-251 > 100 µM | SNB-19 > 100 µM | PC-3 > 100 µM | NCI-H460 > 100 µM | KM12 > 100 µM | SK-MEL-28 > 100 µM | OVCAR-5 > 100 µM | MDA-N > 100 µM | UO-31 > 100 µM | COLO 205 > 100 µM | UACC-62 > 100 µM | SNB-75 > 100 µM | UACC-257 > 100 µM | A498 > 100 µM | K562 > 100 µM | ACHN > 100 µM | HT-29 > 100 µM
